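How tested: cells in 96-well plates exposed to compound for 48 hours at five concentrations. At the GI50, growth is halved.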 Active and inactive are the calls of the source. No stated cut-off is given here; in the data, active = GI50 up to about 1.1 µM and inactive = higher.
Legend:
Test in all cases: NCI anticancer screen, dose series, 48 h
[1] = tested on: A498
[2] = tested on: SF-295
[3] = tested on: UO-31
[4] = tested on: Hs-578T
[5] = tested on: OVCAR-8
[6] = tested on: SK-MEL-5
[7] = tested on: RXF 393
[8] = tested on: U-251
[9] = tested on: HT-29
[10] = tested on: T47D
[11] = tested on: SR
[12] = tested on: A549
[13] = tested on: IGROV-1
[14] = tested on: MDA-MB-435
[15] = tested on: SF-539
[16] = tested on: MCF7
[17] = tested on: HCT-15
[18] = tested on: SK-MEL-2
[19] = tested on: OVCAR-3
[20] = tested on: NCI/ADR-RES
[21] = tested on: SN12C
[22] = tested on: K562
[23] = tested on: OVCAR-4
[24] = tested on: HCC 2998
[25] = tested on: Malme-3M
[26] = tested on: TK-10
[27] = tested on: HOP-62
[28] = tested on: HOP-92
[29] = tested on: EKVX
[30] = tested on: MDA-MB-231
[31] = tested on: MDA-N
[32] = tested on: COLO 205
[33] = tested on: SK-OV-3
[34] = tested on: MOLT-4
[35] = tested on: RPMI-8226
[36] = tested on: PC-3
[37] = tested on: NCI-H522
[38] = tested on: NCI-H23
[39] = tested on: ACHN
[40] = tested on: HL-60
[41] = tested on: 786-0
[42] = tested on: LOX IMVI
[43] = tested on: UACC-62
[44] = tested on: HCT-116
[45] = tested on: NCI-H226
[46] = tested on: OVCAR-5
[47] = tested on: M14
[48] = tested on: UACC-257
[49] = tested on: CAKI-1
[50] = tested on: DU-145
[51] = tested on: CCRF-CEM
[52] = tested on: SW-620
[53] = tested on: SK-MEL-28
[54] = tested on: KM12
[55] = tested on: SNB-75
[56] = tested on: SF-268
[57] = tested on: SNB-19
[58] = tested on: NCI-H460

## Nc1ncnc2c(C3OC(CO)C(O)C3O)nsc12 (stereo not given)
[1]
  GI50: < 0.0115 µM (active)

## COC(=O)c1c2c(cc3c1CC1(Cc4cc5c(c(C=O)c4C1)CCCC5)C3)CCCC2 (stereo not given)
[2]
  GI50: > 100 µM (inactive)
[3]
  GI50: 0.103 µM (active)
[4]
  GI50: 29.2 µM (inactive)
[5]
  GI50: 87.5 µM (inactive)
[6]
  GI50: 71.4 µM (inactive)
[7]
  GI50: 32.7 µM (inactive)
[8]
  GI50: 43.8 µM (inactive)
[9]
  GI50: 51.3 µM (inactive)
[10]
  GI50: 45.3 µM (inactive)
[11]
  GI50: 36.8 µM (inactive)
[12]
  GI50: 33.5 µM (inactive)
[13]
  GI50: 81.5 µM (inactive)
[14]
  GI50: > 100 µM (inactive)
[15]
  GI50: 74.8 µM (inactive)
[16]
  GI50: 27 µM (inactive)
[17]
  GI50: 34.4 µM
[18]
  GI50: 10.2 µM (inactive)
[19]
  GI50: 29.9 µM (inactive)
[20]
  GI50: 94.6 µM (inactive)
[21]
  GI50: 70 µM (inactive)
[22]
  GI50: 33.2 µM (inactive)
[23]
  GI50: 34.1 µM (inactive)
[24]
  GI50: 39 µM (inactive)
[25]
  GI50: > 100 µM (inactive)
[26]
  GI50: 97.9 µM (inactive)
[27]
  GI50: 31.8 µM (inactive)
[28]
  GI50: 56.6 µM (inactive)
[29]
  GI50: 52.4 µM (inactive)
[30]
  GI50: 32.7 µM (inactive)
[31]
  GI50: 89.3 µM (inactive)
[32]
  GI50: 20.7 µM (inactive)
[33]
  GI50: > 100 µM (inactive)
[34]
  GI50: 55.1 µM (inactive)
[35]
  GI50: > 100 µM (inactive)
[36]
  GI50: 40.5 µM (inactive)
[37]
  GI50: 32.1 µM (inactive)
[38]
  GI50: 57.9 µM (inactive)
[39]
  GI50: 23.9 µM (inactive)
[40]
  GI50: 30 µM (inactive)
[1]
  GI50: 66.8 µM (inactive)
[41]
  GI50: > 100 µM (inactive)
[42]
  GI50: > 100 µM (inactive)
[43]
  GI50: 23.5 µM (inactive)
[44]
  GI50: 23.3 µM (inactive)
[45]
  GI50: 80 µM (inactive)
[46]
  GI50: > 100 µM (inactive)
[47]
  GI50: > 100 µM (inactive)
[48]
  GI50: 50.5 µM (inactive)

## CCCCC(=O)c1c(O)nc2sccn2c1=O
[49]
  GI50: > 10 µM (inactive)
[50]
  GI50: > 10 µM (inactive)
[2]
  GI50: > 10 µM (inactive)
[3]
  GI50: > 10 µM (inactive)
[51]
  GI50: > 10 µM (inactive)
[4]
  GI50: > 10 µM (inactive)
[5]
  GI50: > 10 µM (inactive)
[52]
  GI50: > 10 µM (inactive)
[53]
  GI50: > 10 µM (inactive)
[6]
  GI50: > 10 µM (inactive)
[7]
  GI50: > 10 µM (inactive)
[8]
  GI50: > 10 µM (inactive)
[9]
  GI50: > 10 µM (inactive)
[10]
  GI50: > 10 µM (inactive)
[54]
  GI50: > 10 µM (inactive)
[11]
  GI50: > 10 µM (inactive)
[12]
  GI50: > 10 µM (inactive)
[13]
  GI50: > 10 µM (inactive)
[55]
  GI50: > 10 µM (inactive)
[14]
  GI50: > 10 µM (inactive)
[15]
  GI50: > 10 µM (inactive)
[16]
  GI50: > 10 µM (inactive)
[56]
  GI50: > 10 µM (inactive)
[17]
  GI50: > 10 µM
[18]
  GI50: > 10 µM (inactive)
[19]
  GI50: > 10 µM (inactive)
[20]
  GI50: > 10 µM (inactive)
[21]
  GI50: > 10 µM (inactive)
[23]
  GI50: > 10 µM (inactive)
[57]
  GI50: > 10 µM (inactive)
[24]
  GI50: > 10 µM (inactive)
[25]
  GI50: > 10 µM (inactive)
[26]
  GI50: > 10 µM (inactive)
[27]
  GI50: > 10 µM (inactive)
[58]
  GI50: > 10 µM (inactive)
[29]
  GI50: > 10 µM (inactive)
[30]
  GI50: > 10 µM (inactive)
[31]
  GI50: > 10 µM (inactive)
[32]
  GI50: > 10 µM (inactive)
[33]
  GI50: > 10 µM (inactive)
[34]
  GI50: > 10 µM (inactive)
[35]
  GI50: > 10 µM (inactive)
[36]
  GI50: > 10 µM (inactive)
[37]
  GI50: > 10 µM (inactive)
[38]
  GI50: > 10 µM (inactive)
[39]
  GI50: > 10 µM (inactive)
[40]
  GI50: > 10 µM (inactive)
[1]
  GI50: > 10 µM (inactive)
[42]
  GI50: > 10 µM (inactive)
[43]
  GI50: > 10 µM (inactive)
[44]
  GI50: > 10 µM (inactive)
[45]
  GI50: > 10 µM (inactive)
[46]
  GI50: > 10 µM (inactive)
[47]
  GI50: > 10 µM (inactive)

## Nc1ncnc2c1ncn2C1C=CC(CP(=O)(O)O)C1 (stereo not given)
[49]
  GI50: > 100 µM (inactive)
[50]
  GI50: > 100 µM (inactive)
[2]
  GI50: > 100 µM (inactive)
[3]
  GI50: > 100 µM (inactive)
[4]
  GI50: 11 µM (inactive)
[5]
  GI50: > 100 µM (inactive)
[52]
  GI50: > 100 µM (inactive)
[53]
  GI50: > 100 µM (inactive)
[6]
  GI50: > 100 µM (inactive)
[7]
  GI50: > 100 µM (inactive)
[8]
  GI50: > 100 µM (inactive)
[9]
  GI50: > 100 µM (inactive)
[10]
  GI50: > 100 µM (inactive)
[54]
  GI50: > 100 µM (inactive)
[11]
  GI50: > 100 µM (inactive)
[12]
  GI50: > 100 µM (inactive)
[13]
  GI50: > 100 µM (inactive)
[55]
  GI50: > 100 µM (inactive)
[14]
  GI50: > 100 µM (inactive)
[15]
  GI50: > 100 µM (inactive)
[16]
  GI50: > 100 µM (inactive)
[56]
  GI50: > 100 µM (inactive)
[17]
  GI50: > 100 µM
[18]
  GI50: > 100 µM (inactive)
[19]
  GI50: > 100 µM (inactive)
[20]
  GI50: > 100 µM (inactive)
[21]
  GI50: > 100 µM (inactive)
[23]
  GI50: > 100 µM (inactive)
[57]
  GI50: > 100 µM (inactive)
[24]
  GI50: > 100 µM (inactive)
[25]
  GI50: > 100 µM (inactive)
[26]
  GI50: > 100 µM (inactive)
[27]
  GI50: > 100 µM (inactive)
[58]
  GI50: > 100 µM (inactive)
[29]
  GI50: > 100 µM (inactive)
[30]
  GI50: > 100 µM (inactive)
[31]
  GI50: > 100 µM (inactive)
[32]
  GI50: > 100 µM (inactive)
[33]
  GI50: > 100 µM (inactive)
[34]
  GI50: > 100 µM (inactive)
[35]
  GI50: > 100 µM (inactive)
[36]
  GI50: > 100 µM (inactive)
[38]
  GI50: > 100 µM (inactive)
[39]
  GI50: > 100 µM (inactive)
[41]
  GI50: > 100 µM (inactive)
[42]
  GI50: > 100 µM (inactive)
[43]
  GI50: > 100 µM (inactive)
[44]
  GI50: > 100 µM (inactive)
[45]
  GI50: > 100 µM (inactive)
[46]
  GI50: > 100 µM (inactive)
[47]
  GI50: > 100 µM (inactive)
[48]
  GI50: > 100 µM (inactive)
